The source of these data is patent US20100068181A1, “PYRROLO [3, 2-A] PYRIDINE DERIVATIVES FOR INHIBITING KSP KINESIN ACTIVITY” (Schering Corporation, priority 2006, published 2010).

Some results are limits rather than exact numbers.

In one assay the target is T1, KSP (Homo sapiens, UniProt P52732).
T1 sequence (P52732 1-1056): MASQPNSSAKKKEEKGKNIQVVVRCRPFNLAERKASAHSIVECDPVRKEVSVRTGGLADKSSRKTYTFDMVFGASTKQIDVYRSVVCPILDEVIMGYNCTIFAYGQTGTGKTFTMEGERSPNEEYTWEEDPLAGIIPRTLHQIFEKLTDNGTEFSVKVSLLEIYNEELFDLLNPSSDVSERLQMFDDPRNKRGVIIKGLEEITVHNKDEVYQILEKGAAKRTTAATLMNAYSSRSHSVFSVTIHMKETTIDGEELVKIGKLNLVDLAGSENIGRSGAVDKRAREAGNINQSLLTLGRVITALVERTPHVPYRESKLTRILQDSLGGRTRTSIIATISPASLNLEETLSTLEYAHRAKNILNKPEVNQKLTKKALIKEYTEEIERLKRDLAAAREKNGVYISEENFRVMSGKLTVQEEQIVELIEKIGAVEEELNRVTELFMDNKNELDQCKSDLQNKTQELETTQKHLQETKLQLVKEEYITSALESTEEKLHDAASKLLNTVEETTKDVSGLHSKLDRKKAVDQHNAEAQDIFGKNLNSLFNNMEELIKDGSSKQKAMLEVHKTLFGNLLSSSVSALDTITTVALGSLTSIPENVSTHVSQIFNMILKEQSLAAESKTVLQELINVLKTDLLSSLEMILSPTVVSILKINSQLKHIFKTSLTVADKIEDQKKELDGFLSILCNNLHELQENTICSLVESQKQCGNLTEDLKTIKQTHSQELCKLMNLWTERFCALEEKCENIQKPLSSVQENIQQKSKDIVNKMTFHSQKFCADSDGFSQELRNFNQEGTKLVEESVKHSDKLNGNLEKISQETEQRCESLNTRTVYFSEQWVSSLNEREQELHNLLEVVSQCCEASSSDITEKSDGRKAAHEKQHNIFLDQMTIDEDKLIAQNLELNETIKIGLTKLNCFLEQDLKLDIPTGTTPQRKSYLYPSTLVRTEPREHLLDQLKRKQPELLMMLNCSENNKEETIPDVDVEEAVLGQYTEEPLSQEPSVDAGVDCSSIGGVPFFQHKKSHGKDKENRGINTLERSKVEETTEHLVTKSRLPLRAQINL
The experiment in a line: KSP inhibitory activity, end-point assay. Type of assay: biochemical. Particulars: KSP inhibitory activity based on end-point assay; read-out: IC50 Rating. The source says:
The inhibitory activity of the present compounds towards KSP may be assayed by methods known in the art, for example, by using the methods as described in the examples.
In the case of `CC(C)(C)C1CCc2nc3cc(C(=O)Nc4nnn[nH]4)[nH]c3cc2C1` (stereo not drawn) [Example 96], the IC50 – broadly, the concentration needed to halve the response being measured – lay in the range of 0.1 to 1 µM.

Consider `CC(C)(C)C1CCc2nc3cc(C(=O)N[C@H](CO)c4ccccc4)[nH]c3cc2C1` (stereo partly drawn) [Example 106], for which the IC50 was 0.1 to 1 µM.

As for `CC(C)(C)C1CCc2nc3c(C(N)=O)c[nH]c3cc2C1` (stereo not drawn) [Example 82], the IC50 lay within 0.1 to 1 µM.

With `CCOC(=O)c1[nH]c2cc3c(nc2c1CC(O)CO)CCC(C(C)(C)C)C3` (stereo not drawn) [Example 54], the concentration for half-maximal inhibition (IC50) is over 10 µM.

On to `CC(C)(C)C1CCc2nc3c(C(=O)NCc4cccnc4)c[nH]c3cc2C1` (stereo not drawn) [Example 75], for which the IC50 was over 10 µM.

For the compound `CC(O)c1cc2nc3c(cc2[nH]1)CC(C(C)(C)C)CC3` (stereo not drawn) [Example 29], the half-maximal inhibitory concentration (IC50) lay in the range of 0.1 to 1 µM.

As for `CC(C)(C)C1CCc2nc3cc(C(=O)NCCCO)[nH]c3cc2C1` (stereo not drawn) [Example 9], the 50% inhibitory concentration (IC50) lay in the range of 0.1 to 1 µM.

`CCOC(=O)c1[nH]c2cc3c(nc2c1Br)CCC(C(C)(C)C)C3` (stereo not drawn) [Example 34]: the IC50 was over 10 µM.

For the compound `CC(C)(C)C1CCc2nc3cc(C(=O)N[C@H](CN)c4ccccc4)[nH]c3cc2C1` (stereo partly drawn) [Example 122], the IC50 lay in the range of 0.1 to 1 µM.

As for `CC(C)(C)C1CCc2nc3cc(C(=O)NCCCCCCN)[nH]c3cc2C1` (stereo not drawn) [Example 14], the IC50 was 0.1 to 1 µM.

In the case of `CC(C)(C)C1CCc2nc3cc(C(=O)NNc4ccccn4)[nH]c3cc2C1` (stereo not drawn) [Example 101], the IC50 was 0.1 to 1 µM.

Take `CCOCc1cc2nc3c(cc2[nH]1)CC(C(C)(C)C)CC3` (stereo not drawn) [Example 88]: the IC50 is 0.1 to 1 µM.

`CC(C)(C)C1CCc2nc3c(NC(=O)CO)c(C(N)=O)[nH]c3cc2C1` (stereo not drawn) [Example 63]: the IC50 was in the range of 1 to 10 µM.

Take `CNNC(=O)c1cc2nc3c(cc2[nH]1)CC(C(C)(C)C)CC3` (stereo not drawn) [Example 100]: the IC50 is over 10 µM.

Regarding `CCOC(=O)c1[nH]c2cc3c(nc2c1NCCOC)CCC(C(C)(C)C)C3` (stereo not drawn) [Example 64], the IC50 is over 10 µM.

As for `C[C@@H](CO)NC(=O)c1cc2nc3c(cc2[nH]1)CC(C(C)(C)C)CC3` (stereo partly drawn) [Example 20], the IC50 was 1 to 10 µM.

For `CC(C)(C)C1CCc2nc3cc(C(=O)Nc4ccc(O)cc4)[nH]c3cc2C1` (stereo not drawn) [Example 102], the IC50 lay within 0.1 to 1 µM.

For `CCOC(=O)c1[nH]c2cc3c(nc2c1NC(=O)COC(C)=O)CCC(C(C)(C)C)C3` (stereo not drawn) [Example 62], the IC50 was over 10 µM.

In the case of `CC(C)(C)C1CCc2nc3c(C(=O)NCCN)c[nH]c3cc2C1` (stereo not drawn) [Example 73], the IC50 was over 10 µM.

In the case of `CNC(=O)c1cc2nc3c(cc2[nH]1)CC(C(C)(C)C)CC3` (stereo not drawn) [Example 3], the IC50 was under 0.1 µM.

Take `CC(C)(C)C1CCc2nc3c(CCCN)c(C(N)=O)[nH]c3cc2C1` (stereo not drawn) [Example 53]: the IC50 is over 10 µM.

Consider `CNC(=O)c1cc2nc3c(cc2[nH]1)C[C@@H](C(C)(C)C)CC3` (single isomer, unassigned) [Example 22B], for which the IC50 fell in the range of 0.1 to 1 µM.

On to `CC(C)(C)C1CCc2nc3c(C#CCCO)c(C(N)=O)[nH]c3cc2C1` (stereo not drawn) [Example 56], for which the IC50 was over 10 µM.

On to `CCOC(=O)c1[nH]c2cc3c(nc2c1CC)CCC(C(C)(C)C)C3` (stereo not drawn) [Example 47], for which the IC50 is over 10 µM.

As to `CC(C)(C)C1CCc2nc3c(C(=O)NCCO)c[nH]c3cc2C1` (stereo not drawn) [Example 72], the IC50 lay in the range of 1 to 10 µM.

Take `CC(C)(C)[C@H]1CCc2nc3cc(C(N)=O)[nH]c3cc2C1` (single isomer, unassigned) [Example 21B]: the IC50 was 0.1 to 1 µM.

On to `CC(C)(C)C1CCc2nc3c(-c4cccc(O)c4)c(C(N)=O)[nH]c3cc2C1` (stereo not drawn) [Example 115], for which the IC50 lay within 1 to 10 µM.

Regarding `CCOC(=O)c1c(Cl)[nH]c2cc3c(nc12)CCC(C(C)(C)C)C3` (stereo not drawn) [Example 69], the IC50 was over 10 µM.

Regarding `CC(C)(C)C1CCc2nc3cc(C(=O)Nc4ccc(CCO)cc4)[nH]c3cc2C1` (stereo not drawn) [Example 105], the IC50 lay in the range of 1 to 10 µM.

Take `CC(C)(C)C1CCc2nc3cc(C(=O)NCc4ccc5c(c4)OCO5)[nH]c3cc2C1` (stereo not drawn) [Example 90]: the IC50 is over 10 µM.

Consider `CC(C)(C)C1CCc2nc3c(C(=O)NCCN4CCNCC4)c[nH]c3cc2C1` (stereo not drawn) [Example 74], for which the IC50 was over 10 µM.

As to `CC(C)(C)C1CCc2nc3cc(CN)[nH]c3cc2C1` (stereo not drawn) [Example 25], the IC50 is 0.1 to 1 µM.

With `CCc1c(C(=O)NCCN)[nH]c2cc3c(nc12)CCC(C(C)(C)C)C3` (stereo not drawn) [Example 60], the IC50 lay within 0.1 to 1 µM.

For the compound `CC(C)(C)C1CCc2nc3cc(C(=O)N[C@H](CN)c4cccc(N)c4)[nH]c3cc2C1` (stereo partly drawn) [Example 123], the IC50 was under 0.1 µM.

As to `C[C@@H](CO)NC(=O)c1c[nH]c2cc3c(nc12)CCC(C(C)(C)C)C3` (stereo partly drawn) [Example 76], the IC50 was over 10 µM.

Consider `CC(=O)c1cc2nc3c(cc2[nH]1)CC(C(C)(C)C)CC3` (stereo not drawn) [Example 30], for which the IC50 fell in the range of 0.1 to 1 µM.

With `CC(C)(C)C1CCc2nc3cc(C(=O)NN)[nH]c3cc2C1` (stereo not drawn) [Example 17], the IC50 was under 0.1 µM.

For `COc1ccc(C(O)c2cc3nc4c(cc3[nH]2)CC(C(C)(C)C)CC4)cc1` (stereo not drawn) [Example 111], the IC50 was over 10 µM.

For the compound `CC(C)(C)C1CCc2nc3c(C(=O)Nc4ncccn4)c[nH]c3cc2C1` (stereo not drawn) [Example 94], the IC50 was over 10 µM.

For the compound `CC(C)(C)C1CCc2nc3cc[nH]c3cc2C1` (stereo not drawn) [Example 83], the IC50 was under 0.1 µM.

Turning to `CC(C)(C)C1CCc2nc3cc(C(=O)NNc4ccccc4)[nH]c3cc2C1` (stereo not drawn) [Example 95], the IC50 is over 10 µM.

Consider `CC(C)(C)C1CCc2nc3c(CCC(N)=O)c(C(N)=O)[nH]c3cc2C1` (stereo not drawn) [Example 40], for which the IC50 is 1 to 10 µM.

`CC(C)(C)C1CCc2nc3cc(/C=N/NC(N)=S)[nH]c3cc2C1` (stereo not drawn) [Example 43]: the IC50 was over 10 µM.

In the case of `Cc1c(C(N)=O)[nH]c2cc3c(nc12)CCC(C(C)(C)C)C3` (stereo not drawn) [Example 46], the IC50 is over 10 µM.

As to `CN1CCN(C(=O)c2cc3nc4c(cc3[nH]2)CC(C(C)(C)C)CC4)CC1` (stereo not drawn) [Example 16], the IC50 is over 10 µM.

As to `CCOC(=O)c1[nH]c2cc3c(nc2c1NCCO)CCC(C(C)(C)C)C3` (stereo not drawn) [Example 65], the IC50 is over 10 µM.

Take `CC(C)(C)C1CCc2nc3c(CCC#N)c(C#N)[nH]c3cc2C1` (stereo not drawn) [Example 41]: the concentration for half-maximal inhibition (IC50) fell in the range of 1 to 10 µM.

On to `CCOC(=O)c1[nH]c2cc3c(nc2c1CCCO)CCC(C(C)(C)C)C3` (stereo not drawn) [Example 49], for which the IC50 is over 10 µM.

Turning to `CC(C)(C)C1CCc2nc3c(-c4cccc(C#N)c4)c(C(N)=O)[nH]c3cc2C1` (stereo not drawn) [Example 119], the IC50 is over 10 µM.

In the case of `CCOC(=O)c1c[nH]c2cc3c(nc12)CCC(C(C)(C)C)C3` (stereo not drawn) [Example 70], the IC50 was over 10 µM.

On to `CC(C)(C)C1CCc2nc3cc(C(=O)NCCCCCN)[nH]c3cc2C1` (stereo not drawn) [Example 10], for which the IC50 lay within 0.1 to 1 µM.

`CC(C)(C)[C@@H]1CCc2nc3cc(C(=O)Nc4ccc(O)cc4)[nH]c3cc2C1` [Example 103A]: the IC50 was in the range of 0.1 to 1 µM.

Regarding `CCOC(=O)c1[nH]c2cc3c(nc2c1/C=C/C(=O)OC)CCC(C(C)(C)C)C3` (stereo not drawn) [Example 39], the IC50 is over 10 µM.

In the case of `CC(C)(C)C1CCc2nc3c(C(=O)NCCCO)c[nH]c3cc2C1` (stereo not drawn) [Example 80], the IC50 lay in the range of 1 to 10 µM.

Turning to `CNC(=O)c1cc2nc3c(cc2[nH]1)C[C@H](C(C)(C)C)CC3` (single isomer, unassigned) [Example 22A], the IC50 is under 0.1 µM.

For the compound `CC(C)(C)C1CCc2nc3c(CC(N)=O)c(O)[nH]c3cc2C1` (stereo not drawn) [Example 85], the IC50 is over 10 µM.

On to `CC(C)(C)C1CCc2nc3c(C#CCCCO)c(C(N)=O)[nH]c3cc2C1` (stereo not drawn) [Example 58], for which the IC50 was over 10 µM.

On to `CC(C)(C)C1CCc2nc3c(N)c(C(N)=O)[nH]c3cc2C1` (stereo not drawn) [Example 27], for which the IC50 was 0.1 to 1 µM.

The assay is the same for the next values; noted with them: numerical IC50 values for representative compounds; read-out: IC50.
With `CNC(=O)c1cc2nc3c(cc2[nH]1)CC(C(C)(C)C)CC3` (stereo not drawn) [Example 3], the IC50 is 0.05 µM.

As for `CNC(=O)c1cc2nc3c(cc2[nH]1)C[C@H](C(C)(C)C)CC3` (single isomer, unassigned) [Example 22A], the IC50 amounted to 0.02 µM.
